pIC50: −log10 of the molar value.
Test system: 253994-281-T-J1-PDC KRAS-mutant spheroids with HUVEC/MSC, viability
Assay: Anticancer human tumor 253994-281-T-J1-PDC patient-derived colorectal carcinoma cell line growth inhibition [KRAS2]
Details: for pIC50: curve of first compound; for viability, T/C: stronger effect = lower value
Method in brief: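 KRAS-mutant tumor cells were grown as spheroids with HUVEC endothelial cells and human MSCs as stroma. Targeted agents were tested alone and with KRAS pathway inhibitors. Doses started at or near clinical Cmax, or 10 microM, descending half-log.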

[1] = second compound 0.1 µM, first compound 0.0316 µM
[2] = second compound 0.1 µM, first compound 0.1 µM
[3] = second compound 0.1 µM, first compound 0.316 µM
[4] = second compound 0.1 µM, first compound 1 µM
[5] = second compound 0.1 µM, first compound 3.16 µM
[6] = second compound 0.1 µM, first compound 10 µM
[7] = second compound 0.316 µM, first compound 0.0316 µM
[8] = second compound 0.316 µM, first compound 0.1 µM
[9] = second compound 0.316 µM, first compound 0.316 µM
[10] = second compound 0.316 µM, first compound 1 µM
[11] = second compound 0.316 µM, first compound 3.16 µM
[12] = second compound 0.316 µM, first compound 10 µM
[13] = second compound 1 µM, first compound 0.0316 µM
[14] = second compound 1 µM, first compound 0.1 µM
[15] = second compound 1 µM, first compound 0.316 µM
[16] = second compound 1 µM, first compound 1 µM
[17] = second compound 1 µM, first compound 3.16 µM
[18] = second compound 1 µM, first compound 10 µM
[19] = second compound 3.16 µM, first compound 0.0316 µM
[20] = second compound 3.16 µM, first compound 0.1 µM
[21] = second compound 3.16 µM, first compound 0.316 µM
[22] = second compound 3.16 µM, first compound 1 µM
[23] = second compound 3.16 µM, first compound 3.16 µM
[24] = second compound 3.16 µM, first compound 10 µM
[25] = second compound 10 µM, first compound 0.0316 µM
[26] = second compound 10 µM, first compound 0.1 µM
[27] = second compound 10 µM, first compound 0.316 µM
[28] = second compound 10 µM, first compound 1 µM
[29] = second compound 10 µM, first compound 3.16 µM
[30] = second compound 10 µM, first compound 10 µM
[31] = second compound 0.1 µM, first compound 0.000316 µM
[32] = second compound 0.1 µM, first compound 0.001 µM
[33] = second compound 0.1 µM, first compound 0.00316 µM
[34] = second compound 0.1 µM, first compound 0.01 µM
[35] = second compound 0.316 µM, first compound 0.000316 µM
[36] = second compound 0.316 µM, first compound 0.001 µM
[37] = second compound 0.316 µM, first compound 0.00316 µM
[38] = second compound 0.316 µM, first compound 0.01 µM
[39] = second compound 1 µM, first compound 0.000316 µM
[40] = second compound 1 µM, first compound 0.001 µM
[41] = second compound 1 µM, first compound 0.00316 µM
[42] = second compound 1 µM, first compound 0.01 µM
[43] = second compound 3.16 µM, first compound 0.000316 µM
[44] = second compound 3.16 µM, first compound 0.001 µM
[45] = second compound 3.16 µM, first compound 0.00316 µM
[46] = second compound 3.16 µM, first compound 0.01 µM
[47] = second compound 10 µM, first compound 0.000316 µM
[48] = second compound 10 µM, first compound 0.001 µM
[49] = second compound 10 µM, first compound 0.00316 µM
[50] = second compound 10 µM, first compound 0.01 µM
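Note: spheroids exposed to agents for seven days before readout.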
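Throughout, for viability, T/C: percent of DMSO vehicle control viability.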

Row | SMILES | pIC50 (second compound 0.1 µM) | pIC50 (second compound 0.316 µM) | pIC50 (second compound 1 µM) | pIC50 (second compound 3.16 µM) | pIC50 (second compound 10 µM) | viability, T/C [1] | viability, T/C [2] | viability, T/C [3] | viability, T/C [4] | viability, T/C [7] | viability, T/C [8] | viability, T/C [9] | viability, T/C [10] | viability, T/C [13] | viability, T/C [14] | viability, T/C [15] | viability, T/C [19] | viability, T/C [20] | viability, T/C [25] | viability, T/C [26] | also measured
1 | CC(C)NCC(C(=O)N1CCN(c2ncnc3c2C(C)CC3O)CC1)c1ccc(Cl)cc1 (stereo not given) + CC1OCC2(CCN(c3cnc(Sc4ccnc(N)c4Cl)c(N)n3)CC2)C1N | < 5.00 | < 5.00 | < 5.00 | < 5.00 | > 7.50 | 107% | 101% | 99.8% | 90.7% | 95.1% | 91% | 86.4% | 84.7% | 84.7% | 77.9% | 72.9% | 57.8% | 59.5% | 36.3% | 41% | viability, T/C [5]: 85.2%; viability, T/C [6]: 85.8%; viability, T/C [11]: 101%; viability, T/C [12]: 84.3%; viability, T/C [16]: 83.5%; viability, T/C [17]: 83%; viability, T/C [18]: 93%; viability, T/C [21]: 63.9%; viability, T/C [22]: 70.6%; viability, T/C [23]: 77.7%; viability, T/C [24]: 84.3%; viability, T/C [27]: 41.1%; viability, T/C [28]: 51.9%; viability, T/C [29]: 58%; viability, T/C [30]: 55%
2 | CC(C)n1nc(-c2ccc3oc(N)nc3c2)c2c(N)ncnc21 + CC1OCC2(CCN(c3cnc(Sc4ccnc(N)c4Cl)c(N)n3)CC2)C1N | < 7.00 | < 7.00 | 7.06 | 7.75 | > 9.50 | 76.5% | 56.9% | – | – | 68.5% | 49.8% | – | – | 57.6% | 49.4% | – | 44% | 36.5% | 39.2% | 28.2% | viability, T/C [31]: 97.9%; viability, T/C [32]: 100%; viability, T/C [33]: 101%; viability, T/C [34]: 81%; viability, T/C [35]: 93.6%; viability, T/C [36]: 76.7%; viability, T/C [37]: 78.9%; viability, T/C [38]: 77.7%; viability, T/C [39]: 85.3%; viability, T/C [40]: 73.2%; viability, T/C [41]: 82.8%; viability, T/C [42]: 67.8%; viability, T/C [43]: 62%; viability, T/C [44]: 64.6%; viability, T/C [45]: 67.3%; viability, T/C [46]: 55.2%; viability, T/C [47]: 40.1%; viability, T/C [48]: 40.7%; viability, T/C [49]: 43.2%; viability, T/C [50]: 44.5%
3 | CC1(C)CCC(CN2CCN(c3ccc(C(=O)NS(=O)(=O)c4ccc(NCC5CCOCC5)c([N+](=O)[O-])c4)c(Oc4cnc5[nH]ccc5c4)c3)CC2)=C(c2ccc(Cl)cc2)C1 + CC1OCC2(CCN(c3cnc(Sc4ccnc(N)c4Cl)c(N)n3)CC2)C1N | < 5.00 | < 5.00 | < 5.00 | 5.55 | > 7.50 | 88.2% | 100% | 85.4% | 103% | 77% | 82.1% | 79.9% | 80.4% | 89.5% | 72.9% | 72.5% | 66.2% | 67.7% | 38.3% | 36.6% | viability, T/C [5]: 81.6%; viability, T/C [6]: 72.9%; viability, T/C [11]: 72%; viability, T/C [12]: 51.1%; viability, T/C [16]: 79.3%; viability, T/C [17]: 65.7%; viability, T/C [18]: 49.5%; viability, T/C [21]: 63.7%; viability, T/C [22]: 61%; viability, T/C [23]: 48.7%; viability, T/C [24]: 35%; viability, T/C [27]: 47.5%; viability, T/C [28]: 47.1%; viability, T/C [29]: 35%; viability, T/C [30]: 4.16%
4 | CCN1CCN(Cc2ccc(Nc3ncc(F)c(-c4cc(F)c5nc(C)n(C(C)C)c5c4)n3)nc2)CC1 + CC1OCC2(CCN(c3cnc(Sc4ccnc(N)c4Cl)c(N)n3)CC2)C1N | 6.15 | 6.37 | 6.73 | 7.29 | 7.91 | 87.6% | 79.9% | 64.4% | 44.2% | 83.7% | 62.4% | 62.4% | 33% | 72.9% | 57.7% | 43.3% | 47.1% | 41.9% | 39.3% | 33% | viability, T/C [33]: 93.1%; viability, T/C [34]: 102%; viability, T/C [37]: 96%; viability, T/C [38]: 90.6%; viability, T/C [41]: 77.8%; viability, T/C [42]: 76%; viability, T/C [16]: 32.2%; viability, T/C [45]: 68.2%; viability, T/C [46]: 76.6%; viability, T/C [21]: 39%; viability, T/C [22]: 22.8%; viability, T/C [49]: 57%; viability, T/C [50]: 55.9%; viability, T/C [27]: 33%; viability, T/C [28]: 15%
5 | COc1cc2nccc(Oc3ccc(NC(=O)C4(C(=O)Nc5ccc(F)cc5)CC4)cc3)c2cc1OC + CC1OCC2(CCN(c3cnc(Sc4ccnc(N)c4Cl)c(N)n3)CC2)C1N | < 5.00 | 5.08 | 5.12 | 5.32 | > 7.50 | 99% | 106% | 89.8% | 74.9% | 87.8% | 105% | 96.3% | 83.3% | 74% | 83.1% | 86.2% | 58.5% | 64.8% | 29.6% | 36.2% | viability, T/C [5]: 81.2%; viability, T/C [6]: 65.1%; viability, T/C [11]: 75.2%; viability, T/C [12]: 45%; viability, T/C [16]: 84.9%; viability, T/C [17]: 77.5%; viability, T/C [18]: 41.4%; viability, T/C [21]: 70.4%; viability, T/C [22]: 64.7%; viability, T/C [23]: 65.6%; viability, T/C [24]: 24.9%; viability, T/C [27]: 50.5%; viability, T/C [28]: 41.5%; viability, T/C [29]: 39.9%; viability, T/C [30]: 14%
6 | Cn1ncnc1[C@H]1c2n[nH]c(=O)c3cc(F)cc(c23)N[C@@H]1c1ccc(F)cc1 + CC1OCC2(CCN(c3cnc(Sc4ccnc(N)c4Cl)c(N)n3)CC2)C1N | < 7.00 | < 7.00 | < 7.00 | < 7.00 | > 9.50 | 103% | 94.4% | – | – | 87.2% | 76.8% | – | – | 74.8% | 80.8% | – | 63.6% | 55.5% | 44.2% | 32.3% | viability, T/C [31]: 94.9%; viability, T/C [32]: 94.9%; viability, T/C [33]: 99.9%; viability, T/C [34]: 109%; viability, T/C [35]: 95.5%; viability, T/C [36]: 83.6%; viability, T/C [37]: 98.6%; viability, T/C [38]: 85.5%; viability, T/C [39]: 85.7%; viability, T/C [40]: 86%; viability, T/C [41]: 93.2%; viability, T/C [42]: 73.1%; viability, T/C [43]: 67.1%; viability, T/C [44]: 58.3%; viability, T/C [45]: 71.4%; viability, T/C [46]: 66%; viability, T/C [47]: 46.8%; viability, T/C [48]: 47.1%; viability, T/C [49]: 33.4%; viability, T/C [50]: 40.1%
